Laboratory results taken from BindingDB's records for doi:10.1016/s1074-5521(98)90086-2 (Duke University, 1998).

The compounds below were run against 1-aminocyclopropane-1-carboxylate oxidase 1 (Malus domestica, UniProt Q00985) (assay: Inhibition Assay).
Excerpt: Enzyme inhibition assay using ethylene-forming enzyme (EFE).

Sequence of 1-aminocyclopropane-1-carboxylate oxidase 1 (Q00985 whole entry): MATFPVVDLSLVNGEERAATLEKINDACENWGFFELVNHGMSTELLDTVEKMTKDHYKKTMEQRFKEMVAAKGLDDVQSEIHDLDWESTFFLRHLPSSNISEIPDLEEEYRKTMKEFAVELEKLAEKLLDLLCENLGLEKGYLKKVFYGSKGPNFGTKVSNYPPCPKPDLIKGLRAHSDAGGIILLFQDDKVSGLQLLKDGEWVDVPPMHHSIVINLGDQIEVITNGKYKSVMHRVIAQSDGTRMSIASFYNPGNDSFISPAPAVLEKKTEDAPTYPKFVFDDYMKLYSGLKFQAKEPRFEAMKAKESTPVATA

Row | SMILES | Ki [µM]
1 | CC(C)(NO)C(=O)O [N-hydroxy aminoisobutryic acid] | 13
2 | CC(C)(N)C(=O)O [Aminoisobutyric (AIB)] | 150
3 | O=C(O)C1(NO)CCC1 [N-Hydroxyaminocyclobutanecarboxylic acid] | 18
4 | NC1(C(=O)O)CCC1 [Aminocyclobutanecarboxylic acid (ACBC)] | 220
